Assay type in all cases: cell-based
Common to all, as to settings: geometric mean of at least 2 assay runs, † = single assay run

The test system of test [1] is HEK293 cells overexpressing APOL1 G2. Briefly: APOL1 G2 HEK293 cell rescue assay (reversal of cell death caused by overexpression of APOL1). In short, it runs like this: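 Each compound tested in duplicate wells on one plate per run, with values usually the geometric mean across at least two runs on different days, occasionally from one run only. Read-out: concentration giving half-maximal rescue of APOL1 G2 overexpression-induced death of HEK293 cells.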

Test [2] concerns Trypanosoma brucei Lister 427 VSG221 with APOL1 G0 recombinant protein. The test is described as follows: APOL1 G0 trypanosome cell rescue assay (Example B5). In short, it runs like this: (§1)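 Recombinant APOL1 protein, dispensed from a 2 μg/mL stock, and 250 T. brucei per well were co-incubated with test compound (0.4% DMSO) for 20 h. Viability: CellTiter-Glo luminescence.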
The test system of test [3] is Trypanosoma brucei Lister 427 VSG221 with APOL1 G1 recombinant protein. The test is described as follows: APOL1 G1 trypanosome cell rescue assay (Example B5). In short, it runs like this:
as §1

[4] abbreviates: Homo sapiens, HEK293, HEK293 overexpressing APOL1 G2.
Where [5] appears, read: Trypanosoma brucei, 20 h, read-out: APOL1 G0 Trypanosome Rescue EC50, Trypanosoma brucei Lister 427 VSG221 with APOL1 G0 recombinant protein, 20 hours, CellTiter-Glo.
[6] abbreviates: Trypanosoma brucei, 20 h, read-out: APOL1 G1 Trypanosome Rescue EC50, Trypanosoma brucei Lister 427 VSG221 with APOL1 G1 recombinant protein, 20 hours, CellTiter-Glo.
[7] abbreviates: read-out: APOL1 G0 Trypanosome Rescue EC50, Trypanosoma brucei Lister 427 VSG221 with APOL1 G0 recombinant protein, 20 hours, CellTiter-Glo.
The mark [8] stands for this setting: read-out: APOL1 G1 Trypanosome Rescue EC50, Trypanosoma brucei Lister 427 VSG221 with APOL1 G1 recombinant protein, 20 hours, CellTiter-Glo.

pEC50: −log10 of the molar value. Like-named read-outs stand apart in the source and are kept apart here.

Take `CS(=O)(=O)C1(c2ccc(OCCN3CCC4(CC3)C(=O)Nc3ccc(C#N)cc34)cc2)COC1` [Compound 109, 1′-{2-[4-(3-methanesulfonyloxetan-3-yl)phenoxy]ethyl}-2-oxo-1,2-dihydrospiro[indole-3,4′-piperidine]-5-carbonitrile]: the results for the pEC50 in test [1] (setting [4]), in test [2] (setting [5]) and in test [3] (setting [6]) were 7.01, 6.49 and 6.41, respectively.
The like results for `CC(C)(C#N)c1ccc(OCCN2CCC3(CC2)C(=O)Nc2ccc(C#N)cc23)cc1` [Compound 157, 1′-{2-[4-(1-cyano-1-methylethyl)phenoxy]ethyl}-2-oxo-1,2-dihydrospiro[indole-3,4′-piperidine]-5-carbonitrile] were, in that order, 7.30, 6.96 and 6.85.
For `O=C1NCC2c3ccc(OCCN4CCC5(CC4)C(=O)Nc4ccc(Cl)cc45)cc3CCN12` (single isomer, unassigned) [Compound 116, (S) or (R)-5-chloro-1′-[2-({3-oxo-1H,2H,3H,5H,6H,10bH-imidazo[4,3-a]isoquinolin-8-yl}oxy)ethyl]-1,2-dihydrospiro[indole-3,4′-piperidin]-2-one], the pEC50 is 7.09 in test [1] (setting [4]), 6.83 in test [2] (setting [7]) and 6.68 in test [3] (setting [8]).
In the case of `CS(=O)(=O)C1(c2ccc(OCCN3CCC4(CC3)C(=O)Nc3ccc(C#N)cc34)cc2C(F)(F)F)COC1` [Compound 166, 1′-{2-[4-(3-methanesulfonyloxetan-3-yl)-3-(trifluoromethyl)phenoxy]ethyl}-2-oxo-1,2-dihydrospiro[indole-3,4′-piperidine]-5-carbonitrile], the figures for the pEC50 in test [1] (setting [4]), in test [2] (setting [5]) and in test [3] (setting [6]) were 7.25, 7.03 and 6.95, respectively.
As for `CS(=O)(=O)c1ccc(OCCN2CCC3(CC2)C(=O)Nc2c(C#N)cc(Cl)cc23)cc1` [Compound 9, 5-chloro-1′-[2-(4-methanesulfonylphenoxy)ethyl]-2-oxo-1,2-dihydrospiro[indole-3,4′-piperidine]-7-carbonitrile], the pEC50 in test [1] (setting [4]) is 5.75; in test [2] (setting [5]) it was under 5.40; in test [3] (setting [6]) it was under 5.40.
On to `CN1CCc2cc(OCCN3CCC4(CC3)C(=O)Nc3ccc(C#N)cc34)ccc2S1(=O)=O` [Compound 154, 1′-{2-[(2-methyl-1,1-dioxo-3,4-dihydro-2H-1λ^6,2-benzothiazin-6-yl)oxy]ethyl}-2-oxo-1,2-dihydrospiro[indole-3,4′-piperidine]-5-carbonitrile], for which the negative logarithm of the EC50 (pEC50) in test [1] (setting [4]) was 7.17; in test [2] (setting [5]), 6.48; in test [3] (setting [6]) it was 6.24.
The matching figures for `CC(C)N1C(=O)Cc2cc(OCCN3CCC4(CC3)C(=O)Nc3ccc(C#N)cc34)ccc21` [Compound 144, 2-oxo-1′-(2-{[2-oxo-1-(propan-2-yl)-2,3-dihydro-1H-indol-5-yl]oxy}ethyl)-1,2-dihydrospiro[indole-3,4′-piperidine]-5-carbonitrile]: 7.09, 6.65 and 6.45.
The matching figures for `CS(=O)(=O)C1(c2ccc(OCCN3CCC4(CC3)C(=O)N(CC(F)(F)F)c3ccc(C#N)cc34)cc2)COC1` [Compound 184, 1′-{2-[4-(3-methanesulfonyloxetan-3-yl)phenoxy]ethyl}-2-oxo-1-(2,2,2-trifluoroethyl)-1,2-dihydrospiro[indole-3,4′-piperidine]-5-carbonitrile]: 6.30, 5.80 and 5.68.
Turning to `CC(c1ccc(OCCN2CCC3(CC2)C(=O)Nc2ccc(C#N)cc23)cc1)S(C)(=O)=O` (single isomer, unassigned) [Compound 135, (R) or (S)-1′-{2-[4-(1-methanesulfonylethyl)phenoxy]ethyl}-2-oxo-1,2-dihydrospiro[indole-3,4′-piperidine]-5-carbonitrile], the pEC50 is 6.68 in test [1] (HEK293 overexpressing APOL1 G2), 5.97 in test [2] (setting [7]) and 5.92 in test [3] (setting [8]).
Consider `C[C@@H](CN1CCC2(CC1)C(=O)Nc1ccccc12)Oc1ccc(S(C)(=O)=O)cc1` (single isomer, unassigned) [Compound 13], for which the results for the pEC50 in test [1] (setting [4]), in test [2] (setting [5]) and in test [3] (setting [6]) were 5.52, under 5.40 and under 5.40, respectively.
For `Cc1cc(OCCN2CCC3(CC2)C(=O)Nc2ccc(Cl)cc23)ccc1S(C)(=O)=O` [Compound 110, 5-chloro-1′-[2-(4-methanesulfonyl-3-methylphenoxy)ethyl]-1,2-dihydrospiro[indole-3,4′-piperidin]-2-one], the pEC50 is 7.38 in test [1] (setting [4]), 7.15 in test [2] (setting [5]) and 7.06 in test [3] (setting [6]).
With `O=C1CCC2c3ccc(OCCN4CCC5(CC4)C(=O)Nc4ccc(Cl)cc45)cc3CCN12` (single isomer, unassigned) [Compound 123, (R) or (S)-5-chloro-1′-[2-({3-oxo-1H,2H,3H,5H,6H,10bH-pyrrolo[2,1-a]isoquinolin-8-yl}oxy)ethyl]-1,2-dihydrospiro[indole-3,4′-piperidin]-2-one], the pEC50 in test [1] (HEK293 overexpressing APOL1 G2) was 7.10; in test [2] (setting [7]), 6.75; in test [3] (setting [8]), 6.59.
As for `CN1C(=O)C2(CCN(CCOc3cc(F)c(C4(S(C)(=O)=O)COC4)c(F)c3)CC2)c2cc(C#N)ccc21` [Compound 189, 1′-{2-[3,5-difluoro-4-(3-methanesulfonyloxetan-3-yl)phenoxy]ethyl}-1-methyl-2-oxo-1,2-dihydrospiro[indole-3,4′-piperidine]-5-carbonitrile], the pEC50 is 7.23 in test [1] (setting [4]), 6.78 in test [2] (setting [5]) and 6.61 in test [3] (setting [6]).
Regarding `CS(=O)(=O)C1(c2ccc(OCCN3CCC4(CC3)C(=O)Nc3ccc(Cl)cc34)cc2)CC2(COC2)C1` [Compound 182, 5-chloro-1′-[2-(4-{6-methanesulfonyl-2-oxaspiro[3.3]heptan-6-yl}phenoxy)ethyl]-1,2-dihydrospiro[indole-3,4′-piperidin]-2-one], the figures for the pEC50 in test [1] (setting [4]), in test [2] (setting [5]) and in test [3] (setting [6]) were 7.00, 6.40 and 6.32, respectively.
The like results for `CC1(S(=O)(=O)c2ccc(OCCN3CCC4(CC3)C(=O)Nc3ccc(Cl)cc34)cn2)COC1` [Compound 158, 5-chloro-1′-[2-({6-[(3-methyloxetan-3-yl)sulfonyl]pyridin-3-yl}oxy)ethyl]-1,2-dihydrospiro[indole-3,4′-piperidin]-2-one] were, in that order, 7.18, 7.03 and 6.85.
The like results for `O=C1CCc2cc(OCCN3CCC4(CC3)C(=O)Nc3ccc(Cl)cc34)ccc2N1C1COC1` [Compound 99, 5-chloro-1′-(2-{[1-(oxetan-3-yl)-2-oxo-1,2,3,4-tetrahydroquinolin-6-yl]oxy}ethyl)-1,2-dihydrospiro[indole-3,4′-piperidin]-2-one] were, in that order, 7.06, 6.67 and 6.46.
The matching figures for `CN=S(C)(=O)c1ccc(OCCN2CCC3(CC2)C(=O)Nc2ccc(Cl)cc23)cc1` (stereo not drawn) [Compound 147, 5-chloro-1′-(2-{4-[methyl(methylimino)oxo-λ^6-sulfanyl]phenoxy}ethyl)-1,2-dihydrospiro[indole-3,4′-piperidin]-2-one]: 7.20, 6.81 and 6.64.
Regarding `O=C1Nc2ccc(Cl)cc2C12CCN(CCOc1ccc(C3CCCS3(=O)=O)cc1)CC2` (single isomer, unassigned) [Compound 177, (R) or (S)-2-[4-(2-{5-chloro-2-oxo-1,2-dihydrospiro[indole-3,4′-piperidin]-1′-yl}ethoxy)phenyl]-1λ^6-thiolane-1,1-dione], the figures for the pEC50 in test [1] (HEK293 overexpressing APOL1 G2), in test [2] (setting [7]) and in test [3] (setting [8]) were 7.11, 6.59 and 6.50, respectively.
`O=C1Nc2ccc(Cl)cc2C12CCN(CCOc1ccc3c(cnn3C3COC3)c1)CC2` [Compound 15, 5-chloro-1′-(2-{[1-(oxetan-3-yl)-1H-indazol-5-yl]oxy}ethyl)-1,2-dihydrospiro[indole-3,4′-piperidin]-2-one]: the results for the pEC50 in test [1] (setting [4]), in test [2] (setting [5]) and in test [3] (setting [6]) were 6.91, 6.47 and 6.47, respectively.
Consider `CN=S(C)(=O)c1ccc(OCCN2CCC3(CC2)C(=O)Nc2ccc(Cl)cc23)cc1` (single isomer, unassigned) [Compound 149, (R) or (S)-5-chloro-1′-(2-{4-[methyl(methylimino)oxo-λ^6-sulfanyl]phenoxy}ethyl)-1,2-dihydrospiro[indole-3,4′-piperidin]-2-one], for which the figures for the pEC50 in test [1] (HEK293 overexpressing APOL1 G2), in test [2] (setting [7]) and in test [3] (setting [8]) were 7.00, 6.93 and 6.76, respectively.
`CS(=O)(=O)C1(c2ccc(OCCN3CCC4(CC3)C(=O)Nc3ccc(Cl)cc34)cc2)CCOCC1` [Compound 188, 5-chloro-1′-{2-[4-(4-methanesulfonyloxan-4-yl)phenoxy]ethyl}-1,2-dihydrospiro[indole-3,4′-piperidin]-2-one]: the pEC50 in test [1] (setting [4]) is 7.41; in test [2] (setting [5]), 7.15; in test [3] (setting [6]), 7.02.
